Earlier results in patent US20210236593A1, “METHODS OF SUPPORTING WEIGHT MAINTENANCE BY DECREASING THE ACTIVITY OF FAM46A” (SOCIETE DES PRODUITS NESTLE S.A., priority 2016, published 2021).
“Also recorded” adds a separate entry of the source. Where a name gives a salt, the structure may show the parent alone.

System: FAM46A
Details: effect of the chemical on FAM46A expression

| SMILES | Interaction Actions |
| --- | --- |
| CC(=O)Nc1ccc(O)cc1 [Acetaminophen, reference compound] | Affects expression |
| c1ccc2c(c1)cc1ccc3cccc4ccc2c1c34 [Benzo(a)pyrene] | Decreases expression |
| NC(=O)N1c2ccccc2C=Cc2ccccc21 [Carbamazepine, reference compound] | Affects expression |
| O=C(NN=C1CCCCC1)C(=O)NN=C1CCCCC1 [Cuprizone, reference compound] | Decreases expression |
| Nc1ccn([C@@H]2O[C@H](CO)[C@@H](O)[C@@H]2O)c(=O)n1 [Cytarabine, reference compound] | Decreases expression |
| CCCCOC(=O)c1ccccc1C(=O)OCCCC [Dibutyl Phthalate] | Decreases expression |
| CCOC(=O)/C=C\C(=O)OCC [Diethyl maleate] | Decreases expression |
| CN(C)C(=O)Nc1ccc(Cl)c(Cl)c1 [Diuron] | Decreases expression |
| Nc1ccccc1NC(=O)c1ccc(CNC(=O)OCc2cccnc2)cc1 [Entinostat, reference compound] | Decreases expression |
| N#Cc1nn(-c2c(Cl)cc(C(F)(F)F)cc2Cl)c(N)c1[S+]([O-])C(F)(F)F (stereo not drawn) [Fipronil] | Decreases expression |
| OO [Hydrogen Peroxide] | Affects expression; also recorded: Decreases expression |
| Cc1oncc1C(=O)Nc1ccc(C(F)(F)F)cc1 [Leflunomide, reference compound] | Decreases expression |
| [CH3][Hg][Cl] [Methylmercuric chloride] | Decreases expression |
| CCc1nn(CCCN2CCN(c3cccc(Cl)c3)CC2)c(=O)n1CCOc1ccccc1 [Nefazodone, reference compound] | Decreases expression |
| O=C(O)C(F)(F)C(F)(F)C(F)(F)C(F)(F)C(F)(F)C(F)(F)C(F)(F)C(F)(F)C(F)(F)C(F)(F)F [Perfluoro-n-undecanoic acid] | Decreases expression |
| Cc1cccc(Nc2cc(Cl)nc(SCC(=O)O)n2)c1C [Pirinixic acid, reference compound] | Decreases expression |
| Clc1cc2c(cc1Cl)Oc1cc(Cl)c(Cl)cc1O2 [Tetrachlorodibenzodioxin] | Decreases expression |
| CC1=C(/C=C/C(C)=C/C=C/C(C)=C/C(=O)O)C(C)(C)CCC1 [Tretinoin, reference compound] | Decreases expression |
| CC(/C=C/C(=O)NO)=C\[C@@H](C)C(=O)c1ccc(N(C)C)cc1 [Trichostatin A, reference compound] | Decreases expression |
| CCCC(CCC)C(=O)O [Valproic Acid, reference compound] | Decreases expression |
| C=CC1(C)OC(=O)N(c2cc(Cl)cc(Cl)c2)C1=O (stereo not drawn) [Vinclozolin] | Affects expression; also recorded: Decreases expression |
